A short description of data set [1]: Ratio of ID50 for cat CRFK cells to ED50 for Feline leukemia virus.
The test system of data set [2] is Feline leukemia virus. Nature of the data set: Antiviral activity against Feline leukemia virus infected in cat CRFK cells assessed as inhibition of viral replication after 7 days by ELISA. Type of data set: functional. The note with it: 168 h, read-out: ED50 (the source's name).
Data set [3] in a line: Cytotoxicity against cat CRFK cells assessed as reduction in cell viability after 5 days by MTT assay. Format: cell-based, Felis catus. The note with it: read-out: ID50.

Our source for the Ratio, EC50 and CC50 values is ChEMBL document CHEMBL1159023, “Fistularin 3 and 11-ketofistularin 3. Feline leukemia virus active bromotyrosine metabolites from the marine sponge Aplysina archeri” (J Nat Prod, 1992).

`COC1=C(Br)[C@@H](O)[C@]2(C=C1Br)CC(C(=O)NCC(O)c1cc(Br)c(OCC(=O)CNC(=O)C3=NO[C@]4(C=C(Br)C(OC)=C(Br)[C@@H]4O)C3)c(Br)c1)=NO2` (some centres not stated): in data set [1], the Ratio was >11. The EC50 in data set [2] was 42 µM. Besides, the CC50 at 120 h in data set [3] was > 449 µM.
On the same counts, the results for `COC1=C(Br)[C@@H](O)[C@]2(C=C1Br)CC(C(=O)NCC(O)c1cc(Br)c(OCC(O)CNC(=O)C3=NO[C@]4(C=C(Br)C(OC)=C(Br)[C@@H]4O)C3)c(Br)c1)=NO2` (some centres not stated) [FISTULARIN 3] are >20, 22 µM and > 449 µM.
On the same counts, the results for `Nc1ccn([C@H]2CC[C@@H](CO)O2)c(=O)n1` [ZALCITABINE] are 133, 15 µM and 1990 µM.
In the case of `Cc1cn([C@H]2C[C@H](N=[N+]=[N-])[C@@H](CO)O2)c(=O)[nH]c1=O` [ZIDOVUDINE], the Ratio in data set [1] came to 15170. For the same compound, in data set [2], the EC50 is 0.1 µM. In addition, the CC50 at 120 h in data set [3] worked out at 1520 µM.
